Reference: ChEMBL document CHEMBL1201862, “PubChem BioAssay data set” (2004)
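Exposure lasted 48 hours, with cells grown in 96-well plates and compounds tested at five concentrations. The concentration for 50% growth inhibition is given as GI50.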 Activity calls are given as the source filed them. No stated cut-off is given here; in the data, active = GI50 up to about 1.1 µM and inactive = higher.

Tests used:
Assay in all cases: NCI tumour cell line growth inhibition, 48 h
DMS-273 = test system: DMS-273
HOP-18 = test system: HOP-18
SNB-78 = test system: SNB-78
XF498 = test system: XF498
DMS-114 = test system: DMS-114
KM-20L2 = test system: KM-20L2

Measured: GI50

O=C(NC(Cc1ccc(Br)cc1)C(=O)O)c1ccc(I)cc1 (configuration not stated)
inactive: DMS-273 > 100 µM | HOP-18 > 100 µM | SNB-78 > 100 µM | XF498 > 100 µM | DMS-114 70.5 µM | KM-20L2 > 100 µM

S=P1(Sc2ccccc2)Oc2ccc3ccccc3c2-c2c(ccc3ccccc23)O1
inactive: DMS-273 > 100 µM | HOP-18 > 92.5 µM | SNB-78 > 100 µM | XF498 > 100 µM | DMS-114 > 58.6 µM | KM-20L2 67.1 µM
